This is an account of results in patent publication US9624215B2, “Amine derivative or salt thereof” (TOYAMA CHEMICAL CO., LTD., priority 2012, dated 2017).

The test system of the test is normal human neonatal foreskin epidermal keratinocytes (NHEK-F). The test is described as follows: Cell proliferation inhibition test. In kind it is cell-based. The following applies: Keratinocyte, 72 h, NHEK-F cells, three days incubation, ATPlite or CellTiterGlo, read-out: IC50 (concentration of the compound at which the cell count is reduced by 50%). The protocol:
2×10^3 normal human neonatal foreskin epidermal keratinocytes (NHEK-F) (Kurabo, KK-4009) were suspended in 100 μL of Humedia-EG2 (Kurabo, KK-2150S) medium, plated in a 96-well plate and incubated overnight. The test compound was added on the following day and the cells were incubated for further three days. The cell count was determined using ATPlite (PerkinElmer, 6016739) or CellTiterGlo (Promega, G7573).
The inhibition rate was calculated from the following formula to determine the concentration of the compound at which the cell count is reduced by 50% (IC50). Inhibition rate (%)=100−(cell count in the presence of test compound/cell count in the absence of test compound)×100
Regarding `COCCCc1cc(Nc2ncc(C3CC3)cc2C(=O)O)cc2ccn(CC(C)C)c12` [Example 608, 5-cyclopropyl-2-((7-(3-methoxypropyl)-1-(2-methylpropyl)-1H-indol-5-yl)amino)nicotinic acid], the IC50 was no more than 10 nM.

In the case of `COc1ccc(-c2cc(Nc3ncc(C4CC4)cc3C(=O)O)cc3ccn(C)c23)cc1` [Example 487, 5-cyclopropyl-2-((7-(4-methoxyphenyl)-1-methyl-1H-indol-5-yl)amino)nicotinic acid], the IC50 was no more than 10 nM.

`Cc1cn(CC(C)C)c2ccc(Nc3ncc(C4CC4)cc3C(=O)O)cc12` [Example 535, 5-cyclopropyl-2-((1-isobutyl-3-methyl-1H-indol-5-yl)amino)nicotinic acid]: the IC50 is no more than 10 nM.

As to `O=C(O)c1cc(C2CC2)cnc1Nc1cccc2c1ccn2CC1CCCCO1` (stereo not shown) [Example 423, 5-cyclopropyl-2-((1-((tetrahydro-2H-pyran-2-yl)methyl)-1H-indol-4-yl)amino)nicotinic acid], the IC50 was 10 to 100 nM.

Consider `Cc1cccc(-c2cc(Nc3ncc(C4CC4)cc3C(=O)O)cc3ccn(C)c23)c1` [Example 477, 5-cyclopropyl-2-((1-methyl-7-(m-tolyl)-1H-indol-5-yl)amino)nicotinic acid], for which the IC50 was no more than 10 nM.

`CCCCCCCn1ccc2cc(Nc3ncc(C4CC4)cc3C(=O)O)ccc21` [Example 640, 5-cyclopropyl-2-((1-heptyl-1H-indol-5-yl)amino)nicotinic acid]: the IC50 lay in the range of 10 to 100 nM.

`O=C(O)c1cc(C2CC2)cnc1Nc1ccc2c(ccn2Cc2c(F)cccc2F)c1` [Example 634, 5-cyclopropyl-2-((1-(2,6-difluorobenzyl)-1H-indol-5-yl)amino)nicotinic acid]: the IC50 is no more than 10 nM.

On to `O=C(O)c1cc(Cl)ccc1Nc1ccc2c(ccn2Cc2cscn2)c1` [Example 302, 5-chloro-2-((1-(thiazol-4-ylmethyl)-1H-indol-5-yl)amino)benzoic acid], for which the IC50 fell in the range of 10 to 100 nM.

On to `O=C(O)c1cc(C(F)(F)F)cnc1Nc1ccc2c(ccn2Cc2ccccc2)c1` [Example 116, 2-((1-benzyl-1H-indol-5-yl)amino)-5-(trifluoromethyl)nicotinic acid], for which the IC50 was no more than 10 nM.

As for `O=C(O)c1cc(Cl)ccc1Nc1ccc2c(ccn2Cc2ccc3ccccc3n2)c1` [Example 251, 5-chloro-2-((1-(quinolin-2-ylmethyl)-1H-indol-5-yl)amino)benzoic acid], the IC50 lay in the range of 10 to 100 nM.

As to `O=C(O)c1cc(Cl)ncc1Nc1ccc2c(ccn2Cc2ccccc2)c1` [Example 229, 5-((1-benzyl-1H-indol-5-yl)amino)-2-chloroisonicotinic acid], the IC50 was in the range of 10 to 100 nM.

For the compound `O=C(O)c1cc(Cl)ccc1Nc1ccc2c(ccn2CC2CCCCC2)c1` [Example 257, 5-chloro-2-((1-(cyclohexylmethyl)-1H-indol-5-yl)amino)benzoic acid], the IC50 is no more than 10 nM.

Consider `Cn1ccc2cc(Nc3ncc(C4CC4)cc3C(=O)O)cc(-c3cncnc3)c21` [Example 591, 5-cyclopropyl-2-((1-methyl-7-(pyrimidin-5-yl)-1H-indol-5-yl)amino)nicotinic acid], for which the IC50 fell in the range of 100 to 1000 nM.

As to `O=C(O)c1cc(C2CC2)cnc1Nc1ccc2ccn(-c3ccccc3)c2c1` [Example 525, 5-cyclopropyl-2-((1-phenyl-1H-indol-6-yl)amino)nicotinic acid], the IC50 is no more than 10 nM.

As for `Cn1ccc2cc(Nc3ncc(C4CC4)cc3C(=O)O)cc(-c3cccc(C#N)c3)c21` [Example 483, 2-((7-(3-cyanophenyl)-1-methyl-1H-indol-5-yl)amino)-5-cyclopropylnicotinic acid], the IC50 was no more than 10 nM.

Take `O=C(O)c1cc(C2CC2)cnc1Nc1ccc2c(ccn2Cc2cc(C(F)(F)F)cc(C(F)(F)F)c2)c1` [Example 499, 2-((1-(3,5-bis(trifluoromethyl)benzyl)-1H-indol-5-yl)amino)-5-cyclopropylnicotinic acid]: the IC50 was no more than 10 nM.

On to `O=C(O)c1cc(C2CC2)cnc1Nc1ccc2c(-c3ccccc3)cccc2c1` [Example 177, 5-cyclopropyl-2-((5-phenylnaphthalen-2-yl)amino)nicotinic acid], for which the IC50 was no more than 10 nM.

With `Cn1ccc2cc(Nc3ncc(C4CC4)cc3C(=O)O)cc(-c3cccc(F)c3)c21` [Example 465, 5-cyclopropyl-2-((7-(3-fluorophenyl)-1-methyl-1H-indol-5-yl)amino)nicotinic acid], the IC50 was no more than 10 nM.

For `O=C(O)c1cc(C2CC2)cnc1Nc1c(F)cc2c(ccn2Cc2ccccc2)c1F` [Example 554, 2-((1-benzyl-4,6-difluoro-1H-indol-5-yl)amino)-5-cyclopropylnicotinic acid], the IC50 was no more than 10 nM.

As to `Cc1ccc(-n2ccc3cc(Nc4ccc(Cl)cc4C(=O)O)ccc32)nn1` [Example 100, 5-chloro-2-((1-(6-methylpyridazin-3-yl)-1H-indol-5-yl)amino)benzoic acid], the IC50 lay within 100 to 1000 nM.

As for `O=C(O)c1cc(C2CC2)cnc1Nc1cccc2c1ccc(=O)n2-c1ccccc1` [Example 401, 5-cyclopropyl-2-((2-oxo-1-phenyl-1,2-dihydroquinolin-5-yl)amino)nicotinic acid], the IC50 lay in the range of 100 to 1000 nM.

As for `COC(=O)c1cc(C2CC2)cnc1Nc1ccc2c(c1)c(-c1cccc(C#N)c1)cn2C` [Example 630], the IC50 is 100 to 1000 nM.

With `COc1cccc(-c2cc(Nc3ncc(C4CC4)cc3C(=O)O)cc3ccn(C)c23)c1` [Example 486, 5-cyclopropyl-2-((7-(3-methoxyphenyl)-1-methyl-1H-indol-5-yl)amino)nicotinic acid], the IC50 is no more than 10 nM.

In the case of `Cn1ccc2cc(Nc3ncc(C4CC4)cc3C(=O)O)cc(C3=CCCCC3)c21` [Example 504], the IC50 was no more than 10 nM.

With `N#Cc1ccccc1Cn1ccc2cc(Nc3ncc(C4CC4)cc3C(=O)O)ccc21` [Example 452, 2-((1-(2-cyanobenzyl)-1H-indol-5-yl)amino)-5-cyclopropylnicotinic acid], the IC50 fell in the range of 10 to 100 nM.

Take `CC(C)Cn1ncc2cc(Nc3ncc(C4CC4)cc3C(=O)O)ccc21` [Example 541, 5-cyclopropyl-2-((1-isobutyl-1H-indazol-5-yl)amino)nicotinic acid]: the IC50 is 10 to 100 nM.

With `O=C(O)c1cc(C2CC2)cnc1Nc1cccc2c(=O)n(-c3ccccc3)cnc12` [Example 369, 5-cyclopropyl-2-((4-oxo-3-phenyl-3,4-dihydroquinazolin-8-yl)amino)nicotinic acid], the IC50 is 100 to 1000 nM.

In the case of `Cn1ccc2cc(Nc3ncc(C4CC4)cc3C(=O)O)cc(-c3ccncc3F)c21` [Example 589, 5-cyclopropyl-2-((7-(3-fluoropyridin-4-yl)-1-methyl-1H-indol-5-yl)amino)nicotinic acid], the IC50 lay in the range of 10 to 100 nM.

For the compound `CCCn1ccc2c(Nc3ncc(C4CC4)cc3C(=O)O)cccc21` [Example 419, 5-cyclopropyl-2-((1-propyl-1H-indol-4-yl)amino)nicotinic acid], the IC50 is 10 to 100 nM.

As to `CC(C)Cn1ccc2cc(Nc3ncc(C4CC4)cc3C(=O)O)cnc21` [Example 547, 5-cyclopropyl-2-((1-isobutyl-1H-pyrrolo(2,3-b)pyridin-5-yl)amino)nicotinic acid], the IC50 was in the range of 10 to 100 nM.

Regarding `COC/C=C/c1cccc(Cn2ccc3cc(Nc4ncc(C5CC5)cc4C(=O)O)ccc32)c1` [Example 508, (E)-5-cyclopropyl-2-((1-(3-(3-methoxyprop-1-en-1-yl)benzyl)-1H-indol-5-yl)amino)nicotinic acid], the IC50 was no more than 10 nM.

For the compound `COCCN(C)c1cccc(Cn2ccc3cc(Nc4ncc(C5CC5)cc4C(=O)O)ccc32)c1` [Example 511, 5-cyclopropyl-2-((1-(3-((2-methoxyethyl)(methyl)amino)benzyl)-1H-indol-5-yl)amino)nicotinic acid], the IC50 is no more than 10 nM.

Consider `Cc1cnc(Nc2ccc3c(ccn3Cc3ccccc3)c2)c(C(=O)O)c1` [Example 125, 2-((1-benzyl-1H-indol-5-yl)amino)-5-methylnicotinic acid], for which the IC50 was in the range of 10 to 100 nM.

On to `Cc1ccc(-c2cc(Nc3ncc(C4CC4)cc3C(=O)O)cc3ccn(C)c23)cc1` [Example 478, 5-cyclopropyl-2-((1-methyl-7-(p-tolyl)-1H-indol-5-yl)amino)nicotinic acid], for which the IC50 is no more than 10 nM.

`Cn1ccc2cc(Nc3ncc(C4CC4)cc3C(=O)O)cc(-c3cccc(Cl)c3)c21` [Example 489, 2-((7-(3-chlorophenyl)-1-methyl-1H-indol-5-yl)amino)-5-cyclopropylnicotinic acid]: the IC50 is no more than 10 nM.

Regarding `CCn1ccc2cc(Nc3ncc(C4CC4)cc3C(=O)O)ccc21` [Example 121, 5-cyclopropyl-2-((1-ethyl-1H-indol-5-yl)amino)nicotinic acid], the IC50 is 100 to 1000 nM.

In the case of `O=C(O)c1cc(C2CC2)cnc1Nc1cccc2c1ccn2CC1CC1` [Example 437, 5-cyclopropyl-2-((1-(cyclopropylmethyl)-1H-indol-4-yl)amino)nicotinic acid], the IC50 lay within 10 to 100 nM.

In the case of `CCOCCc1cc(Nc2ncc(C3CC3)cc2C(=O)O)cc2ccn(C)c12` [Example 605, 5-cyclopropyl-2-((7-(2-ethoxyethyl)-1-methyl-1H-indol-5-yl)amino)nicotinic acid], the IC50 was in the range of 10 to 100 nM.

With `Cc1cc(Nc2ncc(C3CC3)cc2C(=O)O)cc2ccn(Cc3ccccc3)c12` [Example 629, 2-((1-benzyl-7-methyl-1H-indol-5-yl)amino)-5-cyclopropylnicotinic acid], the IC50 is no more than 10 nM.

For the compound `O=C(O)c1cc(C2CC2)cnc1Nc1cccc2c(-c3ccccc3)cccc12` [Example 367, 5-cyclopropyl-2-((5-phenylnaphthalen-1-yl)amino)nicotinic acid], the IC50 is no more than 10 nM.
